Patent publication US11274106B2, “Topoisomerase inhibitors with antibacterial and anticancer activity” (THE BOARD OF TRUSTEES OF THE UNIVERSITY OF ILLINOIS, priority 2017, dated 2022)
Converted amounts (≈) assume the structure as drawn. “Also recorded” adds a separate entry of the source. Like-named read-outs stand apart in the source and are kept apart here.

Tests used:
[1] = target: T1, Top2cc (Homo sapiens, UniProt P11388); assay: ICE assay for Top2α-DNA complexes in H460 cells; type: cell-based; conditions: 50 μM
T1 construct: endogenous in cells; host or cells: H460
Excerpt: FIG. 3. DNM derivatives are dual Top1/Top2 inhibitors with different modes of inhibition. (a) Inhibition of decatenating ability of Top2α with increasing concentrations of ETP, 6DNM-NH3, 6DNM-Pyr, and Ph-6DNM-NH3. K, kinetoplast DNA; OC, open circular; R, relaxed. (b) Inhibition of relaxing ability of Top1 with increasing concentrations of CPT, 6DNM-NH3, 6DNM-Pyr, and Ph-6DNM-NH3. R, relaxed; S, supercoiled. (c) Detection of Top2a-DNA using the ICE Assay. Genomic DNA ([…]) of H460 cells treated with drugs (50 μM, 30 min) was applied to nitrocellulose membrane and immunoblotted for Top2a. (d) Detection of Top1-DNA adducts using ICE Assay. Same procedure as (c) using 1 μg of DNA. (e) Inhibition of ETP-induced poisoning of Top2a. H460 cells treated with indicated concentrations of inhibitor for 30 min prior to treatment with ETP (50 μM). Detection of Top2α as in (c).
The in vivo complex of enzyme (ICE) assay can be used to distinguish poisons from catalytic inhibitors. The ICE assay consists of isolating the genomic DNA of cells treated with small molecules in a manner the preserves covalent DNA-protein complexes and applying it to nitrocellulose membranes. Because topoisomerase poisons stabilize the cleavage complexes, DNA-protein complexes can be detected by immunoblotting for specific topoisomerases, whereas catalytic inhibitors produce no such result. To determine if DNM derivatives are acting as poisons or catalytic inhibitors, H460 human lung cells were exposed to 50 μM of the Top2 poison ETP, Ph-6DNM-NH3, 6DNM-NH3, and 6DNM-Pyr and assessed for their ability to stabilize Top2cc. […] In a similar fashion, next investigated was the mode of Top1 inhibition using the ICE assay (FIG. 3b).

[2] = system: MDA-MB-231 triple negative breast cancer cells; assay: Antiproliferative SRB assay, MDA-MB-231; type: cell-based; conditions: SRB assay; for Antiproliferative effect against MDA-MB-231 cells: FIG. 1, 72 hour; for IC50: mean ± SEM
Procedure: FIG. 1. […] Cell death measured by SRB assay after 72 hour of compound exposure (n≥3 biological replicates, error bars show SEM). IC50 values given as mean±SEM from ≥3 biological replicates.
To investigate the feasibility of developing a class of antitumor antibiotics based upon the DNM scaffold, the ability of the DNM to exert an antiproliferative effect against MDA-MB-231 breast cancer cells was evaluated.

[3] = system: S. aureus; assay: Antibacterial MIC, microbroth dilution, S. aureus; type: cell-based; conditions: for MIC: Staphylococcus aureus
Procedure: (§1) To investigate this possibility, the antibacterial effects of the DNM derivatives was assessed against strains of E. coli, S. aureus, and MRSA using the microbroth dilution method (Table 2).

[4] = system: E. coli; assay: Antibacterial MIC, microbroth dilution, E. coli; type: cell-based; conditions: for MIC: Escherichia coli
Procedure: as §1

[5] = system: MRSA; assay: Antibacterial MIC, microbroth dilution, MRSA; type: cell-based, S. aureus; conditions: for MIC: Staphylococcus aureus, MRSA, microbroth dilution
Procedure: as §1

[6] = system: H460; assay: Antiproliferative SRB assay, H460; type: cell-based; conditions: Homo sapiens, NCI-H460, 72 h, Lung cancer, mean ± SEM
Excerpt: (§2) Topoisomerase inhibitors such as DOX are used as single agent and in combination therapy to treat a wide-range of cancer types.

[7] = system: ES-2; assay: Antiproliferative SRB assay, ES-2; type: cell-based; conditions: Homo sapiens, ES-2, 72 h, Cervical cancer (footnote f), mean ± SEM
Excerpt: as §2

[8] = system: BT-474; assay: Antiproliferative SRB assay, BT-474; type: cell-based; conditions: Homo sapiens, BT-474, 72 h, Breast cancer, mean ± SEM
Excerpt: as §2

[9] = system: HL-60; assay: Cell viability Alamar Blue assay, HL-60; type: cell-based; conditions: Homo sapiens, HL-60, 72 h, Leukemia, mean ± SEM
Excerpt: as §2

[10] = system: Jurkat; assay: Cell viability Alamar Blue assay, Jurkat; type: cell-based; conditions: Homo sapiens, 72 h, Leukemia, mean ± SEM
Excerpt: as §2

[11] = system: IMR32; assay: Antiproliferative SRB assay, IMR32; type: cell-based; conditions: Homo sapiens, IMR-32, 72 h, Neuroblastoma, mean ± SEM
Excerpt: as §2

[12] = system: panel of cancer cells; assay: Average over panel of 10 cancer cell lines; type: cell-based; conditions: 72 hour, read-out: Average (mean) IC50 over the cell line panel
Excerpt: as §2

[13] = system: HOS; assay: Antiproliferative SRB assay, HOS; type: cell-based; conditions: Homo sapiens, 72 h, Osteosarcoma, mean ± SEM
Excerpt: as §2

[14] = system: HeLa; assay: Antiproliferative SRB assay, HeLa; type: cell-based; conditions: Homo sapiens, 72 h, Ovarian cancer (footnote e), mean ± SEM
Excerpt: as §2

[15] = Homo sapiens, MDA-MB-231, 72 h, 72 hour compound exposure, read-out: MDA-MB-231 IC50

T1 sequence (P11388 whole entry): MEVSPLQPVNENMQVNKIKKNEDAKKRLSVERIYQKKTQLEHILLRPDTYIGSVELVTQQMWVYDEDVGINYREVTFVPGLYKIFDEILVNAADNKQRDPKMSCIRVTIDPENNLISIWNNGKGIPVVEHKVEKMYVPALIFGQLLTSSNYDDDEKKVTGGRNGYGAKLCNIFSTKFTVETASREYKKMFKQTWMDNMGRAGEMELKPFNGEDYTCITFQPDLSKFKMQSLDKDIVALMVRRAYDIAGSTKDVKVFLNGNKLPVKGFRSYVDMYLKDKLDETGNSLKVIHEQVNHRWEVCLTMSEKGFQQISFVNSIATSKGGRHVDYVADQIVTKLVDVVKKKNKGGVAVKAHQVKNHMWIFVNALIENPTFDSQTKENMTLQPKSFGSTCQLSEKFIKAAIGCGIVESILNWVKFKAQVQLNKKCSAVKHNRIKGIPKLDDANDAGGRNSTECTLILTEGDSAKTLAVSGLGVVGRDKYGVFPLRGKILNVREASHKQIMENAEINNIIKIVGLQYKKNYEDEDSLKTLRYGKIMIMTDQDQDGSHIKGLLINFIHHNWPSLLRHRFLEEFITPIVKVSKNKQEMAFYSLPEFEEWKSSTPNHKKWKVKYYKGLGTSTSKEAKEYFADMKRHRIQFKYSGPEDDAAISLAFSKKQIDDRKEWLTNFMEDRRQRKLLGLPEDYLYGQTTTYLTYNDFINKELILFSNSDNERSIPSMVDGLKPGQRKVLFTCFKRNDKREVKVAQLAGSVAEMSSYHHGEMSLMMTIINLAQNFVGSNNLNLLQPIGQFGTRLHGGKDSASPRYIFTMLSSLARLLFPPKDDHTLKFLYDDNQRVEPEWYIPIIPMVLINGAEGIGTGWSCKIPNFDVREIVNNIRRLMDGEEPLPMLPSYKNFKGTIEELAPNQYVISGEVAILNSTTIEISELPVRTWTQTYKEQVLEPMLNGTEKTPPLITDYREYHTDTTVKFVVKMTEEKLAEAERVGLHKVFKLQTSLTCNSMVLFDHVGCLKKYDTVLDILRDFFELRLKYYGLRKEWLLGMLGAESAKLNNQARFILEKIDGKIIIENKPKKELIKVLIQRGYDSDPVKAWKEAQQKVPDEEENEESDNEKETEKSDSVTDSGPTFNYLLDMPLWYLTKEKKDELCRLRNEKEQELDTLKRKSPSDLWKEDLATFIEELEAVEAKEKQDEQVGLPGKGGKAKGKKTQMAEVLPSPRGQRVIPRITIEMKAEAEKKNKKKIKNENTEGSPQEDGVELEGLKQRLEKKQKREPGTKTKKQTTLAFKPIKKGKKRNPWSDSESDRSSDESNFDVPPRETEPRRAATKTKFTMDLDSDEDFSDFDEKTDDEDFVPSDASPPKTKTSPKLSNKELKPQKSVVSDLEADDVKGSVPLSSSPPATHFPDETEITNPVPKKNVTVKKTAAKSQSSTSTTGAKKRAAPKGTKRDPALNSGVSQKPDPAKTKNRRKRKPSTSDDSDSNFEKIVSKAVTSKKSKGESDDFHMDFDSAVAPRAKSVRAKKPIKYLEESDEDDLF

In the case of `COc1cc([C@@H]2c3cc4c(cc3[C@@H](O[C@@H]3O[C@@H]5CO[C@@H](C)O[C@H]5[C@H](O)[C@H]3O)[C@H]3COC(=O)[C@H]23)OCO4)cc(OC)c1O` [ETP, etoposide, reference compound], the “Accumulation of Top2cc (ICE assay)” value [1] is reported as “resulted in the accumulation of Top2cc” and the “Antiproliferative effect against MDA-MB-231 cells” value (“Antiproliferative effect” for short) [2] is reported as “sensitive”.
For `CCOC(=O)C1Oc2c3c(cc4c(C)cc(=O)n1c24)c(C)cc(=O)n3C` (stereo not drawn) [Compound 3], the IC50 [2, 15] was greater than 10 µM, the MIC [3] was greater than 16 mg/L and the MIC [4] was greater than 16 mg/L. For the same molecule, the “Activity against MRSA” value [5] was “remains effective against MRSA” and the MIC [5] was 0.5 mg/L (≈ 1.41 µM).
Molecule `Cc1cc(=O)[nH]c2c3c4c(cc12)c(C)cc(=O)n4C(CN)CO3` (stereo not drawn) [Compound 11] has an IC50 [2, 15] of 0.86 ± 0.07 µM, an MIC [3] of 4 mg/L (≈ 12.8 µM) and an MIC [4] of 2 mg/L (≈ 6.42 µM).
In the case of `COc1cccc2c1C(=O)c1c(O)c3c(c(O)c1C2=O)C[C@@](O)(C(=O)CO)C[C@@H]3O[C@H]1C[C@H](N)[C@H](O)[C@H](C)O1` [Doxorubicin, doxorubicin, reference compound], the IC50 [6] is reported as 0.0061 ± 0.001 µM, the IC50 [7] is reported as 0.032 ± 0.003 µM and the IC50 [8] is reported as 0.26 ± 0.07 µM. For the same molecule, the IC50 [9] was 0.084 ± 0.011 µM, the “Antiproliferative effect” value [2] was “sensitive” and the IC50 ([2]; Homo sapiens, MDA-MB-231, 72 h, Breast cancer, read-out: 72 hour IC50, MDA-MB-231) was 0.021 ± 0.002 µM. For the same molecule, the IC50 [10] was 0.017 ± 0.003 µM, the IC50 [11] was 0.0029 ± 0.0004 µM and the IC50 [12] was 0.055 µM. It also gave an IC50 [13] of 0.019 ± 0.007 µM and an IC50 [14] of 0.024 ± 0.009 µM.
Work on `Cc1cc(=O)n(C)c2c3c4c(cc12)c(C)cc(=O)n4CO3` [Compound 1] yielded an IC50 [2, 15] of 1.1 ± 0.2 µM, an MIC [3] of 2 mg/L (≈ 7.08 µM) and an MIC [4] greater than 16 mg/L. It also gave an MIC [5] of 0.03 mg/L (≈ 0.106 µM).
In the case of `Cc1cc(=O)n2c3c(c4c(cc13)c1ccccc1c(=O)n4C)OCC2CN` (stereo not drawn) [Compound 17], the IC50 ([2]; 72 hour compound exposure, read-out: MDA-MB-231 IC50) is reported as 0.13 ± 0.03 µM, the “S. aureus MIC” value [3] is reported as 4 mg/L and the “E. coli MIC” value [4] is reported as 2 mg/L.
`Cc1cc(=O)n(C)c2c3c4c(cc12)c(C)cc(=O)n4C(CC(=O)O)CO3` (stereo not drawn) [Compound 6] was tested, and the IC50 [2, 15] was greater than 10 µM, the MIC [3] was greater than 16 mg/L and the MIC [4] was greater than 32 mg/L. It also gave an MIC [5] of 16 mg/L (≈ 45.2 µM).
In the case of `Cc1cc(=O)n2c3c(c4c(cc13)c1ccccc1c(=O)n4C)OCC2` [Compound 14], the IC50 [2, 15] is reported as 0.93 ± 0.4 µM, the MIC [3] is reported as 2 mg/L (≈ 6.02 µM) and the MIC [4] is reported as greater than 16 mg/L. It also gave an MIC [5] of 0.5 mg/L (≈ 1.5 µM).
For `Cc1cc(=O)n(CCN)c2c3c4c(cc12)c(C)cc(=O)n4CCO3` [Compound 12], the IC50 [2, 15] was 0.22 ± 0.06 µM, the MIC [3] was 4 mg/L (≈ 12.3 µM) and the MIC [4] was 4 mg/L (≈ 12.3 µM).
Molecule `CC(=O)NCC1COc2c3c(cc4c(C)cc(=O)n1c24)c(C)cc(=O)n3C` (stereo not drawn) [Compound 8] has an IC50 [2, 15] greater than 10 µM, an MIC [3] of 32 mg/L (≈ 87.1 µM) and an MIC [4] greater than 16 mg/L. For the same molecule, the MIC [5] was 0.5 mg/L (≈ 1.36 µM).
With `Cc1cc(=O)n(C)c2c3c4c(cc12)c(C)cc(=O)n4CCO3` [Compound 2] the “Antiproliferative effect” value ([2]; listed as 6DNM) was “produces quantitative cell death; also recorded: equipotent to the clinical trial compound vosoraxin”, the IC50 [2, 15] was 0.73 ± 0.09 µM and the MIC [3] was 1 mg/L (≈ 3.37 µM). It also gave an MIC [4] greater than 16 mg/L and an MIC [5] of 0.06 mg/L (≈ 0.202 µM).
